Reference: US10266548B2, “Substituted benzylindazoles for use as Bub1 kinase inhibitors in the treatment of hyperproliferative diseases” (Bayer Intellectual Property GmbH, priority 2011, dated 2019)
Read-outs that look alike come from different tables or passages of the source.

Tests used:
HeLa cells = assay: Proliferation assay (HeLa cell line); format: cell-based; details: read-out: Biological Assay 2: Proliferation assay (HeLa cell line) median IC50
[1] = target: catalytic domain of human Bub1 (amino acids 704-1085) (Homo sapiens (Human), UniProt O43683); assay: Bub1 kinase assay (TR-FRET); format: biochemical; details: 10 μM ATP, 1 μM peptide substrate; read-out: Biological Assay 1: Bub1 kinase assay median IC50
Method in brief: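 Phosphoserine product detected by TR-FRET (Eu-labeled anti-mouse IgG/anti-phosphoserine antibody to streptavidin-XL665) after 1 h at 22 °C. IC50 from 4-parameter logistic fit.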

[2] = Homo sapiens, 96 h, 4 days, crystal violet

Sequence of catalytic domain of human Bub1 (amino acids 704-1085) (O43683 704-1085): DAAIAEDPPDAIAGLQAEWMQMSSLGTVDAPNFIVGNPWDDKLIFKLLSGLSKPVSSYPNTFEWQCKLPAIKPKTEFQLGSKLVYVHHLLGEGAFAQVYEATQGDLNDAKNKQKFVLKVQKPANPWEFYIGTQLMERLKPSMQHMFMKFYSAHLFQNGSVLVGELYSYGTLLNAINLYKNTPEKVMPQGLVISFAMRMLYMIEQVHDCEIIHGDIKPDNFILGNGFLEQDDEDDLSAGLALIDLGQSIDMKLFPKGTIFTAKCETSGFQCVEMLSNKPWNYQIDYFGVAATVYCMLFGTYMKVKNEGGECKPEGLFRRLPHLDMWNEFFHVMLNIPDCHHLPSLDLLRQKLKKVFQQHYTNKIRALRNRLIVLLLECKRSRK

| SMILES | IC50 (HeLa cells; [2]) [µM] | IC50 [1] [µM] | IC50 (HeLa cells; 4 days, crystal violet) [µM] | IC50 (HeLa cells; Homo sapiens, 96 h) [µM] |
| --- | --- | --- | --- | --- |
| COc1cnc(-c2nn(Cc3cccc(C(C)(C)CO)c3)c3ccccc23)nc1Nc1ccncc1 [Example 8-3, 2-[3-({3-[5-methoxy-4-(pyridin-4-ylamino)pyrimidin-2-yl]-1H-indazol-1-yl}methyl)phenyl]-2-methylpropan-1-ol] | ≥ 10 | 0.24 | – | – |
| CCOc1cc(F)c(Cn2nc(-c3ncc(OC)c(Nc4ccncc4CO)n3)c3ccccc32)c(F)c1 [Example 8-4, [4-({2-[1-(4-ethoxy-2,6-difluorobenzyl)-1H-indazol-3-yl]-5-methoxypyrimidin-4-yl}amino)pyrimidin-3-yl]methanol] | – | 0.013 | 5 | – |
| COc1cnc(-c2nn(Cc3cccc(CC(C)(C)O)c3)c3ccccc23)nc1Nc1ccncc1 [Example 9-2, 1-[3-({3-[5-methoxy-4-(pyridin-4-ylamino)pyrimidin-2-yl]-1H-indazol-1-yl}methyl)phenyl]-2-methylpropan-2-ol] | ≥ 10 | 0.021 | – | – |
| COc1cnc(-c2nn(Cc3c(Cl)ccc(C(C)(C)O)c3Cl)c3ccccc23)nc1Nc1ccncc1 [Example 9-3, 2-[2,4-dichloro-3-({3-[5-methoxy-4-(pyridin-4-ylamino)pyrimidin-2-yl]-1H-indazol-1-yl}methyl)phenyl] propan-2-ol] | – | 0.023 | – | 7 |
| CCOc1cc(F)c(Cn2nc(-c3ncc(OC(F)F)c(Nc4ccncc4)n3)c3ccccc32)c(F)c1 [Example 10-1, 5-(difluoromethoxy)-2-[1-(4-ethoxy-2,6-difluorobenzyl)-1H-indazol-3-yl]-N-(pyridin-4 yl)pyrimidin-4-amine] | 2 | 0.012 | – | – |
| CCOc1cc(F)c(Cn2nc(-c3ncc(O)c(N(c4ccncc4)C(F)F)n3)c3ccccc32)c(F)c1 [Example 10-3, 4-[(difluoromethyl) (pyridin-4-yl)amino]-2-[1-(4-ethoxy-2,6-difluorobenzyl)-1H-indazol-3-yl]pyrimidin-5-ol] | 9.6 | 0.36 | – | – |
| COc1ccc(Cn2nc(-c3ncc(OCC(F)(F)F)c(Nc4ccncc4)n3)c3ccccc32)cc1 [Example 11-1, 2-[1-(4-methoxybenzyl)-1H-indazol-3-yl]-N-(pyridin-4-yl)-5-(2,2,2-trifluoroethoxy)pyrimidin-4-amine] | – | 0.018 | – | 8.1 |
| CCOc1cc(F)c(Cn2nc(-c3ncc(OCC(F)(F)F)c(Nc4ccncc4)n3)c3ccccc32)c(F)c1 [Example 11-2, 2-[1-(4-ethoxy-2,6-difluorobenzyl)-1H-indazol-3-yl]-N-(pyridin-4-yl)-5-(2,2,2-trifluoroethoxy) pyrimidin-4-amine] | ≥ 10 | 0.01 | – | – |
| OC[C@@H](O)COc1cnc(-c2nn(Cc3ccccc3F)c3ccccc23)nc1Nc1ccncc1 [Example 12-2, (2R)-3-({2-[1-(2-fluorobenzyl)-1H-indazol-3-yl]-4-(pyridin-4-ylamino)pyrimidin-5-yl}oxy)propane-1,2-diol] | – | 0.0046 | – | ≥ 10 |
| OC[C@H](O)COc1cnc(-c2nn(Cc3ccccc3F)c3ccccc23)nc1Nc1ccncc1 [Example 12-3] | – | 0.0048 | ≥ 10 | – |
| OCCOc1cnc(-c2nn(Cc3ccccc3F)c3ccccc23)nc1Nc1ccncc1 [Example 13-2, 2-({2-[1-(2-fluorobenzyl)-1H-indazol-3-yl]-4-(pyridin-4-ylamino)pyrimidin-5-yl}oxy)ethanol] | – | 0.0072 | – | 9.6 |
| CCOC(=O)c1cnccc1Nc1nc(-c2nn(Cc3ccccc3F)c3ccccc23)ncc1OCCO [Example 13-3, ethyl 4-({2-[1-(2-fluorobenzyl)-1H-indazol-3-yl]-5-(2-hydroxyethoxy)pyrimidin-4-yl}amino)pyridine-3-carboxylate] | – | 0.017 | – | ≥ 10 |
| CNC(=O)c1cnccc1Nc1nc(-c2nn(Cc3ccccc3F)c3ccccc23)ncc1OCCO [Example 13-4, 4-({2-[1-(2-fluorobenzyl)-1H-indazol-3-yl]-5-(2-hydroxyethoxy)-pyrimidin-4-yl}amino)-N-methylpyridine-3-carboxamide] | 8 | 0.0047 | – | – |
